Active and inactive are the calls of the source. The calls are words filed in the database; no cut-off is given here.
Experiments:
PBMC [1] = experiment: Immunomodulatory activity in PMA/ionomycin-induced human PBMC assessed as reduction in frequency of TNF-alpha expressing CD14+ inflammatory monocytes at 1 to 20 uM incubated for 4 hrs by flow cytomtery; assay type: functional, cell-based; settings: dose 1-20 µM
PBMC [2] = experiment: Cytotoxicity against human PBMC assessed as early apoptotic cells at 1 to 20 uM incubated for 4 hrs by Annexin V-FITC/7-AAD staining based flow cytometric analysis; assay type: toxicity, cell-based; settings: dose 1-20 µM
PBMC [3] = experiment: Immunomodulatory activity in multiple sclerosis patient derived PBMC derived from multiple sclerosis patient assessed as increase in frequency of CTLA4+CRTH2+ CD8+ T cells by CyTOF assay; assay type: functional, cell-based; settings: Homo sapiens
PBMC [4] = experiment: Inhibition of Ca2+ influx in human PBMC derived from multiple sclerosis patient assessed as reduction in Ca2+ influx rate in CD4+ T cells at 10 uM incubated for 4 hrs by Fluo-4 AM staining based flow cytometry method; assay type: functional, cell-based
PBMC [5] = experiment: Immunomodulatory activity in human PBMC derived from multiple sclerosis patient assessed as reduction in IL-2 expressing CD3+ T cells at 10 uM incubated for 4 hrs by flow cytometry; assay type: functional, cell-based
PBMC [6] = experiment: Immunomodulatory activity in PMA/ionomycin-induced human PBMC derived from multiple sclerosis patient assessed as decrease in frequency of CD161+ CD3+T-bet+CD4-CD8-CD14- double negative T cells by CyTOF assay; assay type: functional, cell-based
PBMC [7] = experiment: Immunomodulatory activity in human PBMC derived from multiple sclerosis patient assessed as reduction in TNF-alpha expressing CD3+ T cells at 10 uM incubated for 4 hrs by flow cytometry; assay type: functional, cell-based
PBMC [8] = experiment: Immunomodulatory activity in PMA/ionomycin-induced human PBMC derived from multiple sclerosis patient assessed as increase in frequency of CTLA4+CRTH2+ CD8+ T cells by CyTOF assay; assay type: functional, cell-based
PBMC [9] = experiment: Immunomodulatory activity in multiple sclerosis patient derived PBMC derived from multiple sclerosis patient assessed as reduction in frequency of reactive ICOS+ CD4+ T cells by CyTOF assay; assay type: functional, cell-based; settings: Homo sapiens
PBMC [10] = experiment: Immunomodulatory activity in PMA/ionomycin-induced human PBMC assessed as reduction in frequency of IFN-gamma expressing CD3+ activated T cells at 1 to 20 uM incubated for 4 hrs by flow cytometry; assay type: functional, cell-based; settings: dose 1-20 µM
PBMC [11] = experiment: Immunomodulatory activity in PMA/ionomycin-induced human PBMC assessed as reduction in frequency of IL-2 expressing CD3+ T cells at 1 to 20 uM incubated for 4 hrs by flow cytometry; assay type: functional, cell-based; settings: dose 1-20 µM
PBMC [12] = experiment: Inhibition of Ca2+ influx in human PBMC derived from multiple sclerosis patient assessed as reduction in Ca2+ influx rate in CD8+ T cells at 10 uM incubated for 4 hrs by Fluo-4 AM staining based flow cytometry method; assay type: functional, cell-based
PBMC [13] = experiment: Immunomodulatory activity in PMA/ionomycin-induced human PBMC derived from multiple sclerosis patient assessed as reduction in frequency of reactive ICOS+ CD4+ T cells by CyTOF assay; assay type: functional, cell-based
PBMC [14] = experiment: Cytotoxicity against human PBMC assessed as late apoptotic cells at 1 to 20 uM incubated for 4 hrs by Annexin V-FITC/7-AAD staining based flow cytometric analysis; assay type: toxicity, cell-based; settings: dose 1-20 µM
PBMC [15] = experiment: Immunomodulatory activity in human PBMC derived from multiple sclerosis patient assessed as reduction in IFN-gamma expressing CD3+ T cells at 10 uM incubated for 4 hrs by flow cytometry; assay type: functional, cell-based
PBMC [16] = experiment: Inhibition of Ca2+ influx in human PBMC derived from multiple sclerosis patient assessed as decrease in Ca2+ influx rate in CD8+ T cells at 1 uM incubated for 4 hrs by Fluo-4 AM staining based flow cytometry method; assay type: functional, cell-based
PBMC [17] = experiment: Inhibition of Ca2+ influx in human PBMC derived from multiple sclerosis patient assessed as decrease in Ca2+ influx rate in CD4+ T cells at 1 uM incubated for 4 hrs by Fluo-4 AM staining based flow cytometry method; assay type: functional, cell-based

In the case of COC1=CC(=O)c2c(ccc3c(OC)c(O)ccc23)[C@@]12Oc1cc(OC)cc3ccc4c(c13)C2=CC(=O)C4=O, the Activity (PBMC [1]) is reported as “Active”, the Activity (PBMC [2]) is reported as “Non-Toxic” and the Activity (PBMC [3]) is reported as “Active”. For the same molecule, the inhibition (PBMC [4]) was “inactive”, the Activity (PBMC [5]) was “Active” and the Activity (PBMC [6]) was “Active”. The Activity (PBMC [7]) was “Active”, the Activity (PBMC [8]) was “Active” and the Activity (PBMC [9]) was “Active”. For the same molecule, the Activity (PBMC [10]) was “Active”, the Activity (PBMC [11]) was “Active” and the inhibition (PBMC [12]) was “inactive”. The Activity (PBMC [13]) was “Active”, the Activity (PBMC [14]) was “Non-Toxic” and the Activity (PBMC [15]) was “Active”.
COc1cc2c(c(OC)c1O)-c1ccc(O)c(O)c1CC2 was tested, and the Activity (PBMC [2]) was “Non-Toxic”, the inhibition (PBMC [4]) was “inactive” and the Activity (PBMC [5]) was “Active”. The Activity (PBMC [7]) was “Active”, the Activity (PBMC [11]) was “Active” and the inhibition (PBMC [12]) was “inactive”. For the same molecule, the Activity (PBMC [14]) was “Non-Toxic” and the Activity (PBMC [15]) was “Active”.
COc1cc2ccc3c(OC)c(O)ccc3c2c(OC)c1O was tested, and the Activity (PBMC [11]) was “Active”.
With COC1=CC(=O)c2c(ccc3c(OC)c(O)ccc23)C1=O the Activity (PBMC [11]) was “Active”.
Cc1cccc(F)c1C(=O)Nc1cnc(-c2cc3c(cc2Cl)OC(F)(F)O3)cn1 was tested, and the inhibition (PBMC [16]) was “Active” and the inhibition (PBMC [17]) was “Active”.

— ChEMBL document CHEMBL5316366, “Immunomodulatory Effects of New Phenanthrene Derivatives from Dendrobium crumenatum” (J Nat Prod, 2023)
